The subject of data set [1] is RAW264.7. Nature of the data set: Cytotoxicity against mouse RAW264.7 cells assessed as cell viability by cell counting-based calorimetric assay.
In data set [2] the test system is RAW264.7. Nature of the data set: Inhibition of LPS-induced NO production in mouse RAW264.7 cells assessed as nitrite formation after 24 hrs. Type of data set: functional, cell-based. The note with it: RAW264.7, 24 h.

Among the data in ChEMBL document CHEMBL1667855, “Pyrrolidinone diterpenoid from Isodon excisus and inhibition of nitric oxide production in lipopolysaccharide-induced macrophage RAW264.7 cells” (Bioorg Med Chem Lett, 2011) are Activity and IC50 values, retold here.

Usually IC50 stands for the concentration that gives 50% inhibition. As to `C[C@H](O)/C=C/[C@@]12O[C@]1(C)C[C@@H](O)CC2(C)C` [CORCHOIONOL A], in the data set on RAW264.7 [1], the Activity result is on record as “Non-toxic”. The IC50 in the data set with RAW264.7 [2] was over 40 µM.
For `CC[C@H](O)/C=C/C=C/C=C/C(=O)CCCCCCCC(=O)O` [CORCHORIFATTY ACID B], in that order: “Non-toxic” and over 40 µM.
For `C=C1C(=O)[C@@]23CC[C@@H]4[C@](C)(CO[C@@H]5CCC(=O)N5)[C@@H](OC(C)=O)CC[C@@]4(C)[C@@H]2[C@@H](O)C[C@@H]1C3` [EXCISUSIN F], the Activity result with RAW264.7 [1] is on record as “Non-toxic”. For the same molecule, the IC50 with RAW264.7 [2] was 10.4 µM.
With `C=C1[C@@H]2C[C@H](O)[C@@H]3[C@@](C2)(C[C@H](O)[C@@H]2C(C)(C)[C@@H](OC(C)=O)C[C@H](O)[C@]23C)[C@@H]1OC(C)=O` [INFLEXARABDONIN D], the Activity result with RAW264.7 [1] is listed as “Non-toxic”. The IC50 with RAW264.7 [2] is over 40 µM.
Turning to `C=C1C(=O)[C@@]23CC(=O)[C@@H]4C(C)(C)[C@@H](OC(C)=O)C[C@H](O)[C@@]4(C)[C@@H]2[C@@H](O)C[C@@H]1C3` [INFLEXARABDONIN E], in the data set with RAW264.7 [1], the Activity result is listed as “Non-toxic”. Further, the IC50 in the data set with RAW264.7 [2] is 3.8 µM.
